In patent publication US9822082B2, “Diaminotriazine derivatives as herbicides” (BASF SE, priority 2014, dated 2017):

What was measured:
Assay in all cases: pre-emergence greenhouse herbicidal test
Assay type in all cases: in vivo
[1] = test system: AMARE (Amaranthus retroflexus); details: pre-emergence method, scale from 0 to 100
Excerpt: (§1) The seeds of the test plants were sown separately for each species. For the pre-emergence treatment, the active ingredients, which had been suspended or emulsified in water, were applied directly after sowing by means of finely distributing nozzles. The containers were irrigated gently to promote germination and growth and subsequently covered with transparent plastic hoods until the plants had rooted. This cover caused uniform germination of the test plants, unless this had been impaired by the active ingredients. Depending on the species, the plants were kept at 10-25° C. or 20-35° C., respectively. The test period extended over 2 to 4 weeks. During this time, the plants were tended, and their response to the individual treatments was evaluated. Evaluation was carried out using a scale from 0 to 100. 100 means no emergence of the plants, or complete destruction of at least the aerial moieties, and 0 means no damage, or normal course of growth. A moderate herbicidal activity is given at values of at least 60, a good herbicidal activity is given at values of at least 70, and a very good herbicidal activity is given at values of at least 85. The plants used in the greenhouse experiments were of the following species: [table]

[2] = test system: SETFA (Setaria faberi); details: pre-emergence method, scale from 0 to 100
Excerpt: as §1

[3] = test system: ABUTH (Abutilon theophrasti); details: pre-emergence method, application rate 0.500 kg/ha, scale from 0 to 100
Excerpt: as §1

[4] = test system: ECHCG (Echinocloa crus-galli); details: pre-emergence method, application rate 0.250 kg/ha, scale from 0 to 100
Excerpt: as §1

Structure (SMILES) | herbicidal activity against AMARE ([1]; application rate 0.500 kg/ha) | herbicidal activity against SETFA ([2]; application rate 0.500 kg/ha) | herbicidal activity against ABUTH [3] | herbicidal activity against ECHCG [4] | herbicidal activity against AMARE ([1]; application rate 0.250 kg/ha) | herbicidal activity against SETFA ([2]; application rate 0.250 kg/ha)
COC1(c2nc(N)nc(Nc3c(F)c(F)cc(F)c3F)n2)CCC1 [Example 1, 6-(1-methoxycyclobutyl)-N4-(2,3,5,6-tetrafluorophenyl)-1,3,5-triazine-2,4-diamine] | very good herbicidal activity (a very good herbicidal activity is given at values of at least 85) | very good herbicidal activity (a very good herbicidal activity is given at values of at least 85) | very good herbicidal activity (a very good herbicidal activity is given at values of at least 85) |  |  | 
COC1(c2nc(N)nc(Nc3c(F)c(F)cc(F)c3F)n2)CCCCC1 [Example 3, 6-(1-methoxycyclohexyl)-N2-(2,3,5,6-tetrafluorophenyl)-1,3,5-triazine-2,4-diamine] |  |  |  | very good herbicidal activity (a very good herbicidal activity is given at values of at least 85) | very good herbicidal activity (a very good herbicidal activity is given at values of at least 85) | very good herbicidal activity (a very good herbicidal activity is given at values of at least 85)
COC1(c2nc(N)nc(Nc3c(F)c(F)cc(F)c3F)n2)CCCC1 [Example 2, 6-(1-methoxycyclopentyl)-N2-(2,3,5,6-tetrafluorophenyl)-1,3,5-triazine-2,4-diamine] | very good herbicidal activity (a very good herbicidal activity is given at values of at least 85) | very good herbicidal activity (a very good herbicidal activity is given at values of at least 85) | very good herbicidal activity (a very good herbicidal activity is given at values of at least 85) |  |  | 
